ChEMBL document CHEMBL3885861, “Open TG-GATES”

Organism: Rattus norvegicus
Experiment: Open TG-GATES - Regimen: Single
Assay type: toxicity, organism-based, Sprague-Dawley
Design: regimen Single, gender Male, age 6 weeks
Conditions: in vivo, po, 30 mg/kg, route gavage, dose level Middle; for APTT / Bas / Eos / Fbg / Hb / Ht / Lym / MCH / MCHC / MCV / Mono / Neu / PT / Plat / RBC / Ret / WBC: tissue Blood; for KIDNEY_L / KIDNEY_R / KIDNEY_TOTAL: tissue Kidney; for LIVER: tissue Liver; for ALP / ALT / AST / BUN / CRE / Ca / DBIL / GLC / IP / K / LDH / Na / PL / RALB / TBIL / TC / TG / TP / gamma-GTP: tissue Plasma

## CSc1ccc2c(c1)N(CCC1CCCCN1C)c1ccccc1S2 (configuration not stated) [THIORIDAZINE]
3 h
  TERMINAL_BW: 215.8 g
  APTT: 16.7 s
  Bas: 0%
  Eos: 1%
  Fbg: 201.2 mg/dL
  Hb: 12.4 g/dL
  Ht: 37.2%
  Lym: 73.8%
  MCH: 22.1 pg
  MCHC: 33.3%
  MCV: 66.4 fL
  Mono: 8.8%
  Neu: 16.8%
  PT: 12.5 s
  Plat: 102.7 x10_4/uL
  RBC: 560.6 x10_4/ul
  Ret: 8.6%
  WBC: 77.9 x10_2/uL
  KIDNEY_L: 1 g
  KIDNEY_R: 1 g
  KIDNEY_TOTAL: 2 g
  LIVER: 10.5 g
  ALP: 794 IU/L
  ALT: 37.8 IU/L
  AST: 66.6 IU/L
  BUN: 12.4 mg/dL
  CRE: 0.5 mg/dL
  Ca: 11.1 mg/dL
  DBIL: 0.04 mg/dL
  GLC: 206.6 mg/dL
  IP: 10.3 mg/dL
  K: 4.4 meq/L
  LDH: 91.2 IU/L
  Na: 139 meq/L
  PL: 127.2 mg/dL
  RALB: 3.6 g/dL
  TBIL: 0.4 mg/dL
  TC: 70.2 mg/dL
  TG: 43.6 mg/dL
  TP: 5.2 g/dL
  gamma-GTP: 1 IU/L
6 h
  TERMINAL_BW: 216.3 g
  APTT: 15.9 s
  Bas: 0%
  Eos: 0.6%
  Fbg: 230.2 mg/dL
  Hb: 12.5 g/dL
  Ht: 37.5%
  Lym: 74.2%
  MCH: 21.9 pg
  MCHC: 33.2%
  MCV: 66 fL
  Mono: 7.8%
  Neu: 17.4%
  PT: 12 s
  RBC: 569.4 x10_4/ul
  Ret: 8%
  WBC: 91.2 x10_2/uL
  KIDNEY_L: 1 g
  KIDNEY_R: 1 g
  KIDNEY_TOTAL: 2 g
  LIVER: 10.3 g
  ALP: 765.6 IU/L
  ALT: 30.2 IU/L
  AST: 63.2 IU/L
  BUN: 10.2 mg/dL
  CRE: 0.5 mg/dL
  Ca: 10.8 mg/dL
  DBIL: 0.022 mg/dL
  GLC: 208.6 mg/dL
  IP: 10.9 mg/dL
  K: 4.5 meq/L
  LDH: 98.4 IU/L
  Na: 139.4 meq/L
  PL: 154 mg/dL
  RALB: 3.8 g/dL
  TBIL: 0.4 mg/dL
  TC: 81.4 mg/dL
  TG: 62.8 mg/dL
  TP: 5.4 g/dL
  gamma-GTP: 1.6 IU/L
9 h
  TERMINAL_BW: 213.1 g
  APTT: 16.2 s
  Bas: 0%
  Eos: 0.4%
  Fbg: 213.4 mg/dL
  Hb: 12.6 g/dL
  Ht: 38%
  Lym: 80.6%
  MCH: 21.8 pg
  MCHC: 33.3%
  MCV: 65.6 fL
  Mono: 6%
  Neu: 13.2%
  PT: 12.3 s
  Plat: 108 x10_4/uL
  RBC: 578.8 x10_4/ul
  Ret: 7.8%
  WBC: 109.8 x10_2/uL
  KIDNEY_L: 0.9 g
  KIDNEY_R: 1 g
  KIDNEY_TOTAL: 1.9 g
  LIVER: 9.6 g
  ALP: 971.8 IU/L
  ALT: 28.2 IU/L
  AST: 58.2 IU/L
  BUN: 12.6 mg/dL
  CRE: 0.6 mg/dL
  Ca: 10.9 mg/dL
  DBIL: 0.018 mg/dL
  GLC: 215.6 mg/dL
  IP: 10.6 mg/dL
  K: 4.3 meq/L
  LDH: 82.4 IU/L
  Na: 141 meq/L
  PL: 148.8 mg/dL
  RALB: 3.8 g/dL
  TBIL: 0.4 mg/dL
  TC: 82.2 mg/dL
  TG: 59.6 mg/dL
  TP: 5.6 g/dL
  gamma-GTP: 1.4 IU/L
24 h
  TERMINAL_BW: 225.1 g
  APTT: 16 s
  Bas: 0%
  Eos: 1%
  Fbg: 215.4 mg/dL
  Hb: 13.4 g/dL
  Ht: 40.3%
  Lym: 77.2%
  MCH: 21.5 pg
  MCHC: 33.3%
  MCV: 64.6 fL
  Mono: 9%
  Neu: 12.8%
  PT: 12.1 s
  Plat: 108 x10_4/uL
  RBC: 623.4 x10_4/ul
  Ret: 8%
  WBC: 124.9 x10_2/uL
  KIDNEY_L: 1 g
  KIDNEY_R: 1 g
  KIDNEY_TOTAL: 2 g
  LIVER: 11.7 g
  ALP: 905.2 IU/L
  ALT: 43 IU/L
  AST: 69.8 IU/L
  BUN: 19.4 mg/dL
  CRE: 0.5 mg/dL
  Ca: 11.5 mg/dL
  DBIL: 0.062 mg/dL
  GLC: 190.2 mg/dL
  IP: 9.3 mg/dL
  K: 4.9 meq/L
  LDH: 89.2 IU/L
  Na: 139.2 meq/L
  PL: 163 mg/dL
  RALB: 4 g/dL
  TBIL: 0.3 mg/dL
  TC: 84.4 mg/dL
  TG: 119.8 mg/dL
  TP: 5.9 g/dL
